# Experiments:
# MB49 cells [1] = assay: Apoptosis index (TUNEL assay) in MB49 cells; format: cell-based, murine
# Method: (§1) FIGS. 18a to 18d illustrate test configurations for investigating ROS production. FIG. 18a illustrates a test configuration in which laser light is directly incident on the MB49 cells and FIG. 18 illustrates a test configuration in which the laser light travels through 3 cm of tissue. The laser illumination was carried out with the following intensity 37.5 mW/cm^2, 4 J/cm^2. FIG. 18c illustrates a test configuration in which a wirelessly powered implantable device is powered without intervening tissue. For this configuration near-field (NF) wireless powering was used. FIG. 18d illustrates a test configuration in which a wirelessly powered implantable device is powered without though 3 cm of tissue. For this configuration mid-field (MF) wireless powering was used.
# Cell death could be attributed to apoptosis, a widely accepted mechanism for PDT-mediated cytotoxicity. Apoptosis index (TUNEL assay) including positive and negative controls from the assay are shown.
# [2] = system: solid tumor from MB49 bladder cancer cells; assay: Histology after a single round of PDT, wireless device versus direct laser illumination; format: in vivo, mice
# Method: We compared the therapy to PDT by direct laser illumination, the current clinical standard, by histological examination of the tissue following a single round of treatment. […] The white lines labelled “T.B.” indicates a tissue boundary. Tumor-bearing mice were injected intratumorally with Ce6 and administered either the prior light dose using the wireless device or using a red laser (660 nm) collimated to a 5-mm diameter spot.
# [3] = system: solid tumor from MB49 bladder cancer cells; assay: Cancer PDT in C57 BL/6 mice bearing MB49 tumors, wireless light delivery; format: in vivo
# Method: Treatments were administered on Day 3 (T1) and Day 9 (T2) with a light dose of 1.3 mW over 30 min. Graphs show mean±s.d. (n=5 per group). The light dose was set to the same level (1.3 mW, 30 min) as used in the in vitro experiments. Devices were implanted in the interstitial space around a solid tumor grown to 4-6 mm diameter from MB49 bladder cancer cells subcutaneously injected into the hind region. After a recovery period, PDT was performed by intratumoral injection of Ce6 followed 4 hours later by wireless delivery of the light dose. […] Control groups were left untreated; received Ce6 injections only, received sham devices only, or given light doses using functional devices without Ce6 injection. […] Monitoring of tumor volume ended 13 days after first treatment, beyond which tumors in the majority of the mice from control groups either reached ethical size limits or were ulcerated. […] Tumor volumes cleared by PDT at the prescribed light dose are consistent with light transport calculations and measurements.
# MB49 cells [4] = assay: Cellular ROS production (Image-iT live Green ROS sensor fluorescence); format: cell-based, murine
# Method: (§2) Using Ce6-incubated murine bladder cancer cells, ROS production was further validated against red laser irradiation, the current clinical standard, in two configurations: (i) cells directly exposed to the radio-frequency/laser source, and (ii) cells placed under thick (3 cm) porcine tissue, simulating light delivery to deep tissue regions.
# as §1
# FIGS. 21a to 21g show florescence images of treated cells and control cells. FIGS. 21a and 21b show cells treated following incubation with Ce6 and illuminated with respectively, the direct laser configuration and, the though tissue laser configuration. FIGS. 21c and 21d show cells treated following incubation with Ce6 and illuminated with respectively, the near field (direct) wireless configuration and, the though tissue (mid field) wireless configuration. FIGS. 21e to 21g show control scenarios. […] The results were obtained from a fluorogenic, cell-permeable ROS sensor (Image-iT live Green ROS).
# In all cases, significant cell death resulted from oxidative stress.
# ROS production [5] = assay: ROS production in Ce6 solution around device implanted in adult pig model; details: 5 μM Ce6 solution; device 5.1 cm deep on liver surface, wirelessly powered through tissue; vs control solution with no Ce6
# Method: To illustrate that the implantable illumination devices could be powered through thick tissue at depths relevant to human scales, ROS production studies were conducted in an adult pig model.
# FIGS. 16a to 16c show computed tomography (CT) reconstructions of the radio-frequency transmitter and device implanted an adult pig model.
# The control (No Ce6) was a control solution with no Ce6 and the test solution was a solution containing 5 μM Ce6.
# C6 rat glioma cells = assay: Cell kill in C6 rat glioma by UV light triggered PDT; format: cell-based; details: Ce6 PDT triggered by UV/violet light emitting devices, in vitro
# ROS production [6] = assay: ROS production by Ce6 illuminated with wireless LED mesh device (405 nm or 660 nm); details: UV/violet (405 nm) light versus red (660 nm) light
# Excerpt: Depending on the absorption spectrum of the photosensitizer used and the size of the tumor, the devices can be customized to emit a suitable light wavelength. The photosensitizer Ce6 (chlorin e6) has a strong absorption peak at 405 nm and a weaker one at 660 nm.
# FIG. 33A is a graph showing production of reactive oxygen species (ROS) by Ce6 when illuminated using a wireless illumination device emitting red (660 nm) light. FIG. 33B is a graph showing production of reactive oxygen species (ROS) by Ce6 when illuminated using a wireless illumination device emitting UV/violet (405 nm) light.
# MB49 cells [7] = assay: Cell viability (MTS assay) of Ce6-incubated MB49 cells after irradiation; format: cell-based, murine; details: for cell kill (MTS assay): 20 min irradiation, 1.3 mW
# Method: as §2, §1
# Change in cell viability (MTS assay) following 20 min of irradiation in the above light delivery configurations is shown. The light dosing rate was 1.3 mW throughout. Groups include untreated cells, cells exposed to Ce6 alone, cells exposed to light alone and cells incubated with Ce6 and exposed to light from a laser or the device with or without intervening tissue section.
# ROS production [8] = assay: ROS production in vitro under direct LED illumination of other photosensitizers; details: compared with Ce6
# Excerpt: The system can be adapted for use with other photosensitizers.
# [9] = intratumoral Ce6 + red laser (660 nm), 5-mm spot
# [10] = intratumoral Ce6 + wireless device light dose
compound,measurement,setting,value
Chlorin e6 [Ce6],apoptosis index (TUNEL assay),"MB49 cells [1]; Ce6 + laser, direct",high apoptosis
same,apoptosis index (TUNEL assay),"MB49 cells [1]; Ce6 + laser, through 3 cm tissue",low and comparable to the untreated control scenario
same,apoptosis index (TUNEL assay),"MB49 cells [1]; Ce6 + wireless device, direct (near-field)",high apoptosis
same,apoptosis index (TUNEL assay),"MB49 cells [1]; Ce6 + wireless device, through 3 cm tissue (mid-field)",high apoptosis
same,apoptosis in explanted tumor tissues (TUNEL staining),[2]; [9],comparable apoptosis
same,damage in tissues adjacent to the tumor (TUNEL staining),[2]; [9],did not show significant damage
same,apoptosis in explanted tumor tissues (TUNEL staining),[2]; [10],comparable apoptosis
same,damage in tissues adjacent to the tumor (TUNEL staining),[2]; [10],did not show significant damage
same,body weight over the treatment period,[3]; across all groups of mice incl. Ce6 + wireless light,did not show appreciable weight loss
same,tumor volume as a function of time,"[3]; intratumoral Ce6, wireless light dose 1.3 mW 30 min 4 hours later, two treatments, monitored to 13 days after first treatment, vs control groups","suppression, and in some cases complete regression, of tumors"
same,apoptotic cells in resected tumors (TUNEL staining),[3]; treatment group (Ce6 + wireless light) compared to control groups,significantly greater population of apoptotic cells
same,ROS-induced fluorescence signal,"MB49 cells [4]; Ce6 + laser illumination, beam obstructed with thick tissue",insignificant ROS-induced fluorescence
same,ROS-induced fluorescence signal,"MB49 cells [4]; Ce6 + laser illumination, direct irradiation",effective only under direct irradiation
same,ROS-induced fluorescence signal,"MB49 cells [4]; Ce6 + wireless illumination, close proximity to radio-frequency source",increased signal
same,ROS-induced fluorescence signal,"MB49 cells [4]; Ce6 + wireless illumination, through thick tissue",increased signal
same,ROS production,MB49 cells [4]; Ce6 exposure alone (no light),did not result in significant ROS production
same,ROS production in Ce6 solution,ROS production [5],significant ROS production
same,cell death,C6 rat glioma cells,about 80%
same,ROS yield,ROS production [6],ROS yield is higher
same,change in cell viability (MTS assay),"MB49 cells [7]; Ce6 + laser illumination obstructed by thick (3 cm) tissue, P=0.178",did not result in a significant difference in cell viability
same,change in cell viability (MTS assay),"MB49 cells [7]; Ce6 + laser illumination, direct",effective at reducing cell viability
same,cell kill (MTS assay),"MB49 cells [7]; Ce6 + wireless light delivery through thick (3 cm) tissue (mid-field), P=0.0039",~80%
same,cell kill (MTS assay),"MB49 cells [7]; Ce6 + wireless light delivery, direct (near-field), P=0.0027",~80%
[Zn+2].c1ccc2c(c1)-c1nc-2nc2[n-]c(nc3nc([n-]c4nc(n1)-c1ccccc1-4)-c1ccccc1-3)c1ccccc21 [zinc phthalocyanine],levels of ROS in vitro (normalized fluorescence),ROS production [8],comparable levels of ROS

# From patent US11896843B2, “Photodynamic therapy devices, systems and methods” (NATIONAL UNIVERSITY OF SINGAPORE, priority 2018, dated 2024)
